Earlier results in publication PMC10928227, “Assessing biologic/toxicologic effects of extractables from plastic contact materials for advanced therapy manufacturing using cell painting assay and cytotoxicity screening” (Scientific Reports, 2024).
Like-named read-outs stand apart in the source and are kept apart here.

Columns and labels:
[1] = cited from earlier work
[2] = cited from earlier work; for Risk based on in vitro genotoxicity data from database (from QSAR-toolbox): not checked for in vivo relevance, ref QSAR Toolbox 4.5 database
[3] = in Vivo, Database Genotoxicity & Carcinogenicity ECVAM, ref EURL ECVAM genotoxicity and carcinogencity database, Madia F et al, 2020
[4] = Salmonella typhimurium, Strain TA 97, in Vitro, Database: Bacterial mutagenicity ISSSTY, ref CCRIS database,Toxnet databases (Romualdo Benigni)
[5] = Salmonella typhimurium, Strain TA 98, in Vitro, Database: Bacterial mutagenicity ISSSTY, ref CCRIS database,Toxnet databases (Romualdo Benigni)
[6] = Salmonella typhimurium, Strain TA 100, in Vitro, Database: Bacterial mutagenicity ISSSTY, ref CCRIS database,Toxnet databases (Romualdo Benigni)
[7] = Salmonella typhimurium, Strain TA 102, in Vitro, Database: Bacterial mutagenicity ISSSTY, ref CCRIS database,Toxnet databases (Romualdo Benigni)
[8] = Salmonella typhimurium, Strain TA 1535, in Vitro, Database: Bacterial mutagenicity ISSSTY, ref CCRIS database,Toxnet databases (Romualdo Benigni)
[9] = Salmonella typhimurium, Strain TA 1537, in Vitro, Database: Bacterial mutagenicity ISSSTY, ref CCRIS database,Toxnet databases (Romualdo Benigni)
[10] = Salmonella typhimurium, Strain TA 1538, in Vitro, Database: Bacterial mutagenicity ISSSTY, ref CCRIS database,Toxnet databases (Romualdo Benigni)
[11] = in Vitro, Database Genotoxicity & Carcinogenicity ECVAM, ref EURL ECVAM genotoxicity and carcinogencity database, Madia F et al, 2020
[12] = in Vitro, Salmonella typhimurium, Strain TA 97, Database Genotoxicity OASIS, ref P&G
[13] = in Vitro, Salmonella typhimurium, Strain TA 98, Database Genotoxicity OASIS, ref P&G
[14] = in Vitro, Salmonella typhimurium, Strain TA 100, Database Genotoxicity OASIS, ref P&G
[15] = in Vitro, Salmonella typhimurium, Strain TA 102, OECD Guideline 471, Database Genotoxicity OASIS, ref CCRIS database,Toxnet databases
[16] = in Vitro, Salmonella typhimurium, Strain TA 1535, Database Genotoxicity OASIS, ref P&G
[17] = in Vitro, Salmonella typhimurium, Strain TA 1537, Database Genotoxicity OASIS, ref P&G
[18] = in Vitro, Salmonella typhimurium, Strain TA 1538, Database Genotoxicity OASIS, ref P&G
[19] = in Vitro, Salmonella typhimurium, No Strain Information, Database Genotoxicity OASIS, ref Journal of Medicinal Chemistry 48 (1), pp. 312-32, 25, Kazius J, McGuire R., Bursi R

Structure (SMILES): Nc1ccccc1 [62-53-3]
- Chromosome aberration, in Vivo Mammalian Chromosome Aberration Test ([1]; Database Genotoxicity & Carcinogenicity ECVAM, ref EURL ECVAM genotoxicity and carcinogencity database, Madia F et al, 2020): Positive
- Chromosome aberration, Micronucleus Assay [1, 3]: Positive
- DNA damage and repair, COMET or Alkaline Elution [1, 3]: Positive
- Chromosome aberration, Micronucleus Assay ([1]; in Vivo, Database Genotoxicity OASIS, ref RESS, NB. et. al., MUTAT. RES. 521(1-2):201-208, 2002): Positive
- DNA damage and repair, Single Cell Gel Electrophoresis (comet) Assay ([1]; in Vivo, Database Genotoxicity OASIS, ref Yu F. Sasaki et. al., 2000, Critical Reviews in Toxicology,30(6),Pp.629-799): Positive
- Genetic Toxicity, Genotoxicity ([2]; Mammalian cell line, test guideline not reported, scale Gene mutation I, ref Database: Food TOX Hazard EFSA): Positive
- Gene mutation, Bacterial Reverse Mutation Assay (e.g. Ames Test) [2, 4]: Negative
- Gene mutation, Bacterial Reverse Mutation Assay (e.g. Ames Test) ([2]; Salmonella typhimurium, Strain TA 98(NR), in Vitro, Database: Bacterial mutagenicity ISSSTY, ref CCRIS database,Toxnet databases (Romualdo Benigni)): Negative
- Gene mutation, Bacterial Reverse Mutation Assay (e.g. Ames Test) [2, 5]: Negative
- Gene mutation, Bacterial Reverse Mutation Assay (e.g. Ames Test) ([2]; Salmonella typhimurium, Strain TA 98, in Vitro, Database: Genotoxicity OASIS, ref Mutation Research, 168 (1986) 69-240, U.S. Environmental Protection Agency): Negative
- Gene mutation, Bacterial Reverse Mutation Assay (e.g. Ames Test) ([2]; Salmonella typhimurium, Strain TA 98, in Vitro, Database: Genotoxicity OASIS, ref P&G): Negative
- Gene mutation, Bacterial Reverse Mutation Assay (e.g. Ames Test) [2, 6]: Negative
- Gene mutation, Bacterial Reverse Mutation Assay (e.g. Ames Test) ([2]; Salmonella typhimurium, Strain TA 100, in Vitro, Database: Genotoxicity OASIS, ref Mutation Research, 168 (1986) 69-240, U.S. Environmental Protection Agency): Negative
- Gene mutation, Bacterial Reverse Mutation Assay (e.g. Ames Test) ([2]; Salmonella typhimurium, Strain TA 100, in Vitro, Database: Genotoxicity OASIS, ref P&G): Negative
- Gene mutation, Bacterial Reverse Mutation Assay (e.g. Ames Test) [2, 7]: Negative
- Gene mutation, Bacterial Reverse Mutation Assay (e.g. Ames Test) [2, 8]: Negative
- Gene mutation, Bacterial Reverse Mutation Assay (e.g. Ames Test) ([2]; Salmonella typhimurium, Strain TA 1535, in Vitro, Database: Genotoxicity OASIS, ref Mutation Research, 168 (1986) 69-240, U.S. Environmental Protection Agency): Negative
- Gene mutation, Bacterial Reverse Mutation Assay (e.g. Ames Test) ([2]; Salmonella typhimurium, Strain TA 1535, in Vitro, Database: Genotoxicity OASIS, ref P&G): Negative
- Gene mutation, Bacterial Reverse Mutation Assay (e.g. Ames Test) [2, 9]: Negative
- Gene mutation, Bacterial Reverse Mutation Assay (e.g. Ames Test) ([2]; Salmonella typhimurium, Strain TA 1537, in Vitro, Database: Genotoxicity OASIS, ref Mutation Research, 168 (1986) 69-240, U.S. Environmental Protection Agency): Negative
- Gene mutation, Bacterial Reverse Mutation Assay (e.g. Ames Test) ([2]; Salmonella typhimurium, Strain TA 1537, in Vitro, Database: Genotoxicity OASIS, ref P&G): Negative
- Gene mutation, Bacterial Reverse Mutation Assay (e.g. Ames Test) [2, 10]: Negative
- Chromosome aberration, in Vitro Mammalian Chromosome Aberration Test ([2]; in Vitro, Chinese hamster, Chinese Hamster Lung (CHL), Duration 6÷18 h, Database Genotoxicity OASIS, ref Sofuni, T., Ed. (1998). Data Book of Chromosomal Aberration Test In Vitro, Revised Edition): Positive
- Chromosome aberration, Micronucleus Assay [2, 11]: Positive
- Chromosome aberration, in Vitro Mammalian Chromosome Aberration Test [2, 11]: Positive
- Gene mutation, Mammalian Cell Gene Mutation (MLA HPRT) [2, 11]: Positive
- Gene mutation, Bacterial Reverse Mutation Assay (e.g. Ames Test) ([2]; in Vitro, Salmonella typhimurium and Escherichia Coli, Database Genotoxicity & Carcinogenicity ECVAM, ref EURL ECVAM genotoxicity and carcinogencity database, Madia F et al, 2020): Negative
- Gene mutation, Bacterial Reverse Mutation Assay (e.g. Ames Test) [2, 12]: Negative
- Gene mutation, Bacterial Reverse Mutation Assay (e.g. Ames Test) ([2]; in Vitro, Salmonella typhimurium, Strain TA 98, Database Genotoxicity OASIS, ref Mutation Research, 168 (1986) 69-240, U.S. Environmental Protection Agency): Negative
- Gene mutation, Bacterial Reverse Mutation Assay (e.g. Ames Test) [2, 13]: Negative
- Gene mutation, Bacterial Reverse Mutation Assay (e.g. Ames Test) [2, 14]: Negative
- Gene mutation, Bacterial Reverse Mutation Assay (e.g. Ames Test) [2, 15]: Negative
- Gene mutation, Bacterial Reverse Mutation Assay (e.g. Ames Test) [2, 16]: Negative
- Gene mutation, Bacterial Reverse Mutation Assay (e.g. Ames Test) ([2]; in Vitro, Salmonella typhimurium, Strain TA 1537, Database Genotoxicity OASIS, ref Mutation Research, 168 (1986) 69-240, U.S. Environmental Protection Agency): Negative
- Gene mutation, Bacterial Reverse Mutation Assay (e.g. Ames Test) [2, 17]: Negative
- Gene mutation, Bacterial Reverse Mutation Assay (e.g. Ames Test) [2, 18]: Negative
- Genetic Toxicity, unscheduled DNA synthesis (UDS in Vitro) ([2]; in Vitro, scale Mutagenicity I (ECVAM), ref EURL ECVAM genotoxicity and carcinogencity database, Madia F et al, 2020): Negative

Structure (SMILES): CC(=O)c1ccccc1 [98-86-2]
- Gene mutation, Bacterial Reverse Mutation Assay (e.g. Ames Test) [2, 4]: Negative
- Gene mutation, Bacterial Reverse Mutation Assay (e.g. Ames Test) [2, 5]: Negative
- Gene mutation, Bacterial Reverse Mutation Assay (e.g. Ames Test) [2, 6]: Negative
- Gene mutation, Bacterial Reverse Mutation Assay (e.g. Ames Test) [2, 7]: Negative
- Gene mutation, Bacterial Reverse Mutation Assay (e.g. Ames Test) [2, 8]: Negative
- Gene mutation, Bacterial Reverse Mutation Assay (e.g. Ames Test) [2, 9]: Negative
- Gene mutation, Bacterial Reverse Mutation Assay (e.g. Ames Test) [2, 19]: Negative
- Gene mutation, Bacterial Reverse Mutation Assay (e.g. Ames Test) ([2]; in Vitro, Salmonella typhimurium, Strain TA 97, Database Bacterial mutagenicity ISSSTY, ref CCRIS database,Toxnet databases, Romualdo Benigni, 02.5.2011): Negative
- Gene mutation, Bacterial Reverse Mutation Assay (e.g. Ames Test) ([2]; in Vitro, Salmonella typhimurium, Strain TA 97, Database Genotoxicity OASIS, ref FUJITA H. AND SASAKI M., KENKYU NENPO - TOKYO-TORITSU EISEI KENKYUSHO 38:423-430, 1987): Negative
- Gene mutation, Bacterial Reverse Mutation Assay (e.g. Ames Test) ([2]; in Vitro, Salmonella typhimurium, Strain TA 98, Database Bacterial mutagenicity ISSSTY, ref CCRIS database,Toxnet databases, Romualdo Benigni, 02.5.2011): Negative
- Gene mutation, Bacterial Reverse Mutation Assay (e.g. Ames Test) ([2]; in Vitro, Salmonella typhimurium, Strain TA 102, Database Genotoxicity OASIS, ref FUJITA H. AND SASAKI M., KENKYU NENPO - TOKYO-TORITSU EISEI KENKYUSHO 38:423-430, 1987): Negative

Structure (SMILES): CCCCCCCC(=O)O [124-07-2]
- Chromosome aberration, in Vitro Mammalian Chromosome Aberration Test ([2]; in Vitro, Chinese hamster, Chinese Hamster Lung Cells, Guidelines For Screening Mutagenicity Testing of Chemicals (Chemical Substances Control Law of Japan), Database Toxicity Japan MHLW, ref Japan Ministry of Health Labour and Welfare, http://dra4.nihs.go.jp/mhlw_data/jsp/SearchPageENG.jsp): Negative

Structure (SMILES): CC(=O)c1ccccc1 [Acetophenone]
- Risk based on in vitro genotoxicity data from database (from QSAR-toolbox) [2]: Positive in vitro data

Structure (SMILES): CCCC(C)=O [107-87-9]
- Gene mutation, Bacterial Reverse Mutation Assay (e.g. Ames Test) ([2]; in Vitro, Salmonella typhimurium, No Strain Information, Database Genotoxicity OASIS, ref J. Chem. Inf. Model., 2009, 49 (9), pp 2077–2081, Hansen K. et al.): Negative

Structure (SMILES): OCC(O)CO [56-81-5]
- Chromosome aberration, in Vitro Mammalian Chromosome Aberration Test ([2]; in Vitro, Chinese hamster, Chinese Hamster Lung (CHL), Database Genotoxicity OASIS, ref ECHA, Registration dossier): Negative
- Chromosome aberration, in Vitro Mammalian Chromosome Aberration Test ([2]; in Vitro, Chinese hamster, Chinese Hamster Lung (CHL), Duration 24÷48 h, Database Genotoxicity OASIS, ref Sofuni, T., Ed. (1998). Data Book of Chromosomal Aberration Test In Vitro, Revised Edition): Negative

Structure (SMILES): Oc1ccccc1 [Phenol]
- Measured and predicted data (remark on genetic toxicity) ([2]; heading line of the measured and predicted data section, ref QSAR Toolbox database): suspected of causing genetic defects
- Risk based on in vitro genotoxicity data from database (from QSAR-toolbox) [2]: Positive in vitro data

Structure (SMILES): Cc1cc(C)c(C(=O)P(=O)(c2ccccc2)c2ccccc2)c(C)c1 [75980-60-8]
- Chromosome aberration, in Vitro Mammalian Chromosome Aberration Test ([2]; in Vitro, Chinese hamster, Chinese Hamster Cells, Database Genotoxicity OASIS, ref Scientific Committee on Consumer Safety ( SCCS), 27 March 2014, SCCS/1528/14): Negative

Structure (SMILES): S=c1[nH]c2ccccc2s1 [149-30-4]
- Chromosome aberration, in Vitro Mammalian Chromosome Aberration Test ([2]; in Vitro, No Strain Information, Database Genotoxicity OASIS, ref Mutation Research 584 (2005) 1-256, Kirkland et al.): Positive
- Gene mutation, Mammalian Cell Gene Mutation Assay ([2]; in Vitro, T-lymphoma Cell Lines, Database Genotoxicity OASIS, ref Mutation Research 584 (2005) 1-256, Kirkland et al.): Positive

Structure (SMILES): CCC(C)=O [78-93-3]
- Gene mutation, Bacterial Reverse Mutation Assay (e.g. Ames Test) [2, 4]: Negative
- Gene mutation, Bacterial Reverse Mutation Assay (e.g. Ames Test) [2, 5]: Negative
- Gene mutation, Bacterial Reverse Mutation Assay (e.g. Ames Test) [2, 6]: Negative
- Gene mutation, Bacterial Reverse Mutation Assay (e.g. Ames Test) [2, 7]: Negative
- Gene mutation, Bacterial Reverse Mutation Assay (e.g. Ames Test) ([2]; Salmonella typhimurium, Strain TA 104, in Vitro, Database: Bacterial mutagenicity ISSSTY, ref CCRIS database,Toxnet databases (Romualdo Benigni)): Negative
- Gene mutation, Bacterial Reverse Mutation Assay (e.g. Ames Test) [2, 8]: Negative
- Gene mutation, Bacterial Reverse Mutation Assay (e.g. Ames Test) [2, 9]: Negative
- Gene mutation, Bacterial Reverse Mutation Assay (e.g. Ames Test) [2, 10]: Negative
- Gene mutation, Bacterial Reverse Mutation Assay (e.g. Ames Test) [2, 19]: Negative
- Gene mutation, Bacterial Reverse Mutation Assay (e.g. Ames Test) [2, 12]: Negative
- Gene mutation, Bacterial Reverse Mutation Assay (e.g. Ames Test) [2, 13]: Negative
- Gene mutation, Bacterial Reverse Mutation Assay (e.g. Ames Test) [2, 14]: Negative
- Gene mutation, Bacterial Reverse Mutation Assay (e.g. Ames Test) [2, 15]: Negative
- Gene mutation, Bacterial Reverse Mutation Assay (e.g. Ames Test) [2, 16]: Negative
- Gene mutation, Bacterial Reverse Mutation Assay (e.g. Ames Test) [2, 17]: Negative
- Gene mutation, Bacterial Reverse Mutation Assay (e.g. Ames Test) [2, 18]: Negative
